Here are results for 1 compound from article PMC5007978, “A chemical with proven clinical safety rescues Down-syndrome-related phenotypes in through DYRK1A inhibition” (Disease Models & Mechanisms, 2016).

Molecules are shown by their SMILES.

Series [1] relates to mnb-overexpressing Drosophila. Kind of series: Adult lethality with pan-neuronal mnb overexpression. It is filed as in vivo, Drosophila melanogaster. The settings on record: parent flies fed 100 nM, n=100 per group. The source says:
(§1) The expression of human Tau in Drosophila retinal tissue (GMR>Tau) produced a small rough eye phenotype (GMR>Tau in Fig. 6A and B), as described previously ([Jackson et al., 2002]). […] Pan-neuronal mnb overexpression (elav::synGFP>mnb) caused severe neurogenic defects in both the central and peripheral nervous system during embryogenesis [elav::synGFP>mnb (DMSO) in Fig. 6C]. […] Moreover, the viability of adult flies with the neuronal overexpression of mnb was examined. Pan-neuronal overexpression of mnb caused high rates of mortality in adult flies (∼70%, Fig. 6D).
(§2) Fig. 6. CX-4945 rescues neurological and phenotypic defects in an mnb-overexpressing Drosophila model. (A) The eyes of adult flies overexpressing mnb and/or human Tau under the control of the eye-specific GMR-Gal4 driver, and of control flies bearing only GMR-Gal4. Overexpression of mnb aggravated the eye abnormality induced by Tau overexpression. […] White dashed lines outline the eye contour. (B) The retinal surface areas were measured on multiple samples (n>10) from each genotype, and average eye sizes were presented as normalized percentages of the DMSO-treated GMR-Gal4 control. (C) The brain cortex, primary neuronal cell clusters and axon bundle, as visualized with GFP (green) using UAS-Synaptobrevin-GFP driven by elav-Gal4 at the late embryonic stage 18. […]

Series [2] concerns mnb-overexpressing Drosophila. Kind of series: Wing vein (LV5) defect rescue in mnb-overexpressing flies (MS1096-gal4). Particulars: larvae fed for 2 weeks. It is filed as in vivo, Drosophila melanogaster.
The subject of series [3] is mnb-overexpressing Drosophila. The series is described as follows: Embryonic neurological phenotype with pan-neuronal mnb overexpression (elav::synGFP). In kind it is in vivo.
Description: as §1, §2

For series [4], the target named is T1, DYRK1A (Homo sapiens, UniProt Q13627). Kind of series: DYRK1A-mediated Tau (T212) phosphorylation in transfected 293T cells, western blot. In kind it is cell-based. On the set-up: expressed in transfected cells; host or cells: 293T cells. A general note: Immunoblotting shows a protein as a band on a membrane.
Series [5] has as its system calcineurin-NFAT signaling. The series is described as follows: Flag-NFATc1 localization by immunofluorescence in 293T cells. In kind it is cell-based. Particulars: 10 μM, 293T cells with overexpressed DYRK1A, ionomycin 5 μM. The source says:
Flag-NFATc1 remained predominantly in the cytosol when expressed in 293T cells (Mock, Fig. 5A). Upon the addition of the calcium ionophore ionomycin (IM), Flag-NFATc1 was translocated into the nucleus (Fig. 5A, IM) as a result of NFATc1 dephosphorylation by activated calcineurin. Overexpression of DYRK1A relocalized Flag-NFATc1 into the cytoplasm, even in the presence of ionomycin owing to the opposing action of DYRK1A on NFATc1 phosphorylation, which is consistent with its negative regulatory role in the calcineurin-NFAT pathway (Fig. 5A, DYRK1A+IM).
Fig. 5. […] Firefly luciferase activities were measured using One-Glo reagents. Luciferase activity in the sample with reporter plasmid alone was set to 1, and the relative luciferase activities were calculated. Means±s.d. were determined from two independent experiments.
293T cells were seeded into 8-well chambered coverslips (Ibidi) and transfected with a plasmid expressing Flag-NFATc1. […] Cells were fixed with 4% paraformaldehyde in PBS for 10 min at room temperature, followed by permeabilization with 0.1% Triton X-100, and then subjected to immunofluorescence staining with anti-Flag (1:500) antibody for 2 h. Cells were then washed with cold PBS three times for 3 min each, incubated with Alexa-Fluor-488-conjugated anti-rabbit IgG (1:800) (Invitrogen) at room temperature for 1 h and then examined under a fluorescence microscope.

Details of series [6]: method as in Senhwa Biosciences (2014). The settings on record: phase I clinical trials as cancer therapeutic; ref Senhwa Biosciences (2014); cited from earlier work.
In series [7] the test system is mnb-overexpressing Drosophila. The series is described as follows: Eye phenotype in flies overexpressing human Tau with or without mnb (GMR-Gal4). It is filed as in vivo, Drosophila melanogaster. The settings on record: feeding with 100 nM, GMR>Tau and GMR>mnb+Tau.
Description: as §1
Fig. 6. CX-4945 rescues neurological and phenotypic defects in an mnb-overexpressing Drosophila model. […] (B) The retinal surface areas were measured on multiple samples (n>10) from each genotype, and average eye sizes were presented as normalized percentages of the DMSO-treated GMR-Gal4 control. […]
Drosophila melanogaster were cultured at 25°C on standard cornmeal medium. […] For defining optimal concentration of chemical inhibitors, 50 embryos of each genotype were raised on drug-containing food (0, 1 nM, 10 nM, 100 nM, 1 µM, 10 µM and 25 µM in 0.05% DMSO) and allowed to develop to adulthood (viability assay and wing vein quantification assay). […] Fly eye sizes were measured on multiple samples (n>10) from each genotype using the National Institutes of Health ImageJ software. […]

For series [8], the target named is T1, DYRK1A. The series is described as follows: DYRK1A kinase activity at various ATP and CX-4945 concentrations (Lineweaver-Burk). It is filed as biochemical. Set-up: purchased Life Technologies (Kinase Profiler service). Particulars: ATP 50, 75, 100, 150 and 200 μM; Lineweaver-Burk plots. The protocol: Fig. 2. […] Data are mean±s.d. […] Hydrogen bonds are denoted as dotted black lines, and oxygen, nitrogen and chlorine atoms are indicated as red, blue and green sticks, respectively.
Kinase assays were conducted using the Kinase Profiler services offered by Life Technologies, which utilizes a fluorescence-based immunoassay. Detailed protocols can be found at http://www.lifetechnologies.com/kinaseprofiling. […] All experiments were performed twice.

In the case of `O=C(O)c1ccc2c(c1)nc(Nc1cccc(Cl)c1)c1ccncc12` [CX-4945], the “reduction of mortality of the progeny” value in series [1] is given as “more than 70%”. Moreover, the “concentration giving apparent rescue of wing (LV5) defect” value in series [2] fell in the range of 10 to 100 nM. The “effect on control flies lacking mnb overexpression” value in series [3] (100 nM, elav::synGFP>control) is “little noticeable effect”. The “neurogenic defects of mnb-overexpressing embryos” value in series [3] (parent flies fed 100 nM, elav::synGFP>mnb) is listed as “restored these neurogenic defects”. Besides, the “inhibition of Tau phosphorylation at 0.1 μM” value against DYRK1A [4] (0.1 μM) was “Moderate inhibition”. The “inhibition of Tau phosphorylation at 1 μM” value at DYRK1A [4] (1 μM) was “almost complete inhibition”. The “nuclear translocation of Flag-NFATc1” value in series [5] is given as “effectively induced the nuclear translocation”. Besides, the clinical safety entry in series [6] is reported as “safety has been already proven”. Further, in series [7], the “eye defects induced by overexpression of Tau alone or with mnb” value was “significantly mitigated”. Moreover, on DYRK1A [8], the “mode of DYRK1A inhibition” value was “ATP-competitive manner”.
